# Laboratory results from patent US7053175B1, “Synthetic peptides useful in biological assays for detecting infections caused by group O HIV-1 viruses” (Bio-Rad Pasteur, priority 1997, dated 2006).
# No end group written: not given here.
# Columns and labels:
# [1] = system: sera from patients infected with group O HIV-1 retroviruses; experiment: Immunoenzymatic test of compositions containing peptides (Example 4); type: binding, human; set-up: key: >: signal greater than the reading capacity of the spectrophotometer; conditions: single peptide 2 μg/ml or composition 1 μg/ml + 1 μg/ml
# Procedure: For this test, the procedure was carried out according to the protocol described in Example 2 and the same sera were used. The microplates used were sensitized either with peptide No. 1 (2B) cyclized, or with peptide No. 3 (4B) cyclized, or with a composition containing these two peptides (1:1 w/w). Into each well, there were deposited either 100 μl of a solution containing 2 μg/ml of peptide No. 1 (2B), or 100 μl of a solution containing 2 μg/ml of peptide No. 3 (4B), or 100 μl of a solution containing 1 μg/ml of peptide No. 1 (2B) and 1 μg/ml of peptide No. 3 (4B).
# [2] = system: serum samples from patients infected with group O HIV-1 retroviruses; experiment: Immunoenzymatic test: Test No. 2 (immunoreactivity with diluted sera); type: binding, human; conditions: solid phase peptide 2 μg/ml; for Number of samples: sera of Table V; for ABSORBANCE (OD): cyclized
# Source text: The serum samples from patients infected with group O HIV-1 retroviruses were obtained by the Yaounde Pasteur Centre in Cameroon and were serotyped group O according to the serological algorithm described in AIDS (1977), 11, pp. 445-453. A genotyped sample (Maryland) is obtained from the United States. These samples were previously diluted in negative human serum at the dilutions given in Table V, in order to have a sufficient volume for the different immunoreactivity tests.
# The synthetic peptides used were dissolved in water at a concentration of 1 mg/ml (stock solution). For the solid phase sensitization step (“coating”), the procedure was carried out as described for Example 2.
# The serum samples were diluted 1/5 with a skimmed milk solution (citrate buffer supplemented with 0.01% of phenol red, 0.25% of chloroform and 0.25% of Kathon®), deposited in the wells of plates and incubated for 30 min at 40° C.
# After washing with a Tris-NaCl buffer solution pH 7.4 containing 0.1% of Tween® 20 and 0.001% of sodium merthiolate, 100 μl of a solution of conjugate consisting of horseradish peroxidase-labelled anti-human IgG and IgM goat antibodies, containing as preservative 0.01% of sodium merthiolate, in solution in a citrate buffer solution supplemented with 30% glycerol and 25% normal foetal calf serum, were added to each well of the plates and then they were incubated for 30 min at 40° C.
# After washing with a Tris-NaCl buffer solution pH 7.4 containing 0.1% of Tween® 20 and 0.001% of sodium merthiolate, the colour was developed as described in Example 2.
# The relative absorbance (OD) (A490-A620) read in each well is proportional to the immunoreactivity of each peptide. It indicates the ability of each peptide to react with the biological sample with which the test is carried out.
# The reactivity of the peptides of the invention, peptides No. 10 (14B), No. 11 (18B), No. 12 (19B), No. 14 (21B), No. 15 (22B), No. 16 (23B) all in cyclized form, was compared with that of three homologous synthetic peptides having, as sequence, a portion of the natural sequence of the envelope (env) of a group O HIV-1 retrovirus. These peptides are two peptides derived from the VAU isolate—the peptide VAU 22 AA and the peptide VAU 35 AA—and the peptide MVP 5180 (designated “MVP 5180” in Table V). The peptides VAU 22 AA and VAU 35 AA (whose structure is indicated in Example 2) and the peptide MVP 5180 comprise an immunodominant epitope of gp41.
# All these peptides were used in cyclized form. The sequence of the MVP 5180 peptide is the following:
# For each peptide tested, the samples were arranged into four classes (a, b, c and d) corresponding to various levels of relative absorbance read at the wavelengths A492-A620: • for a: OD<0.100, • for b: 0.100<OD<0.500, • for c: 0.500<OD<1.000, • for d: OD>1.000, thus making it possible to evaluate the degree of immunoreactivity of the peptides.
sequence,measurement,setting,value
LLSLWGCRGKAVCYTSVQWNET [PEPTIDE No. 1 (2B)],ABSORBANCE,[1]; serum 1062,>
same,ABSORBANCE,[1]; serum 1702,1.016
same,ABSORBANCE,[1]; serum 1754,>
same,ABSORBANCE,[1]; serum 2294,0.447
same,ABSORBANCE,[1]; serum 2352,0.205
same,ABSORBANCE,[1]; serum 2551,>
same,ABSORBANCE,[1]; serum 2700,>
same,ABSORBANCE,[1]; serum 3016,0.243
same,ABSORBANCE,[1]; serum 3136 (listed twice),0.302
same,ABSORBANCE,[1]; serum 3235,>
same,ABSORBANCE,[1]; serum 3302,0.386
same,ABSORBANCE,[1]; serum 3482,1.473
same,ABSORBANCE,[1]; serum 3600,2.743
same,ABSORBANCE,[1]; serum 3627,2.910
same,ABSORBANCE,[1]; serum 3771,0.544
same,ABSORBANCE,[1]; serum 3891,2.780
same,ABSORBANCE,[1]; serum 3935,0.307
same,ABSORBANCE,[1]; serum 4477*,>
same,ABSORBANCE,[1]; serum 4489,>
same,ABSORBANCE,[1]; serum 5149,>
same,ABSORBANCE,[1]; serum 5270,>
same,ABSORBANCE,[1]; serum 5931,>
same,ABSORBANCE,[1]; serum 6165,2.714
same,ABSORBANCE,[1]; serum 6198,>
same,ABSORBANCE,[1]; serum 6627,>
same,ABSORBANCE,[1]; serum 6697,>
same,ABSORBANCE,[1]; serum 6891,0.062
same,ABSORBANCE,[1]; serum 6976,>
same,ABSORBANCE,[1]; serum 6998,>
same,ABSORBANCE,[1]; serum 7258,2.477
same,ABSORBANCE,[1]; serum 7443,>
"RLLALETFIEENELLNLWGCKNRAICYTSVKWNKT (cysteine pairing not given here) [VAU 35 AA, reference compound]",Number of samples,[2]; CLASS A (a: OD<0.100),11
same,Number of samples,[2]; CLASS B (b: 0.100<OD<0.500),3
same,Number of samples,[2]; CLASS C (c: 0.500<OD<1.000),0
same,Number of samples,[2]; CLASS D (d: OD>1.000),0
same,ABSORBANCE (OD),[2]; serum 258 OUDI at 1/100,0.058
same,ABSORBANCE (OD),[2]; serum 625 at 1/50,0.069
same,ABSORBANCE (OD),[2]; serum 3600 at 1/100,0.025
same,ABSORBANCE (OD),[2]; serum 3613 at ¼00,0.250
same,ABSORBANCE (OD),[2]; serum 3653 at 1/10,0.021
same,ABSORBANCE (OD),[2]; serum 4280 at 1/50,0.013
same,ABSORBANCE (OD),[2]; serum 6111 at 1/100,0.087
same,ABSORBANCE (OD),[2]; serum DJOU at 1/100,0.022
same,ABSORBANCE (OD),[2]; serum DO15 at 1/100,0.036
same,ABSORBANCE (OD),[2]; serum MBASSI at 1/100,0.120
same,ABSORBANCE (OD),[2]; serum Maryland at ¼00,0.054
same,ABSORBANCE (OD),[2]; serum NGO at 1/50,0.055
same,ABSORBANCE (OD),[2]; serum NJEM at 1/100,0.159
same,ABSORBANCE (OD),[2]; serum WANG at 1/50,0.025
LLSSWGCKGRLVCYTSVQWNET [PEPTIDE No. 3 (4B)],ABSORBANCE,[1]; serum 1062,>
same,ABSORBANCE,[1]; serum 1702,>
same,ABSORBANCE,[1]; serum 1754,>
same,ABSORBANCE,[1]; serum 2294,>
same,ABSORBANCE,[1]; serum 2352,>
same,ABSORBANCE,[1]; serum 2551,>
same,ABSORBANCE,[1]; serum 2700,>
same,ABSORBANCE,[1]; serum 3016,>
same,ABSORBANCE,[1]; serum 3136 (listed twice),>
same,ABSORBANCE,[1]; serum 3235,>
same,ABSORBANCE,[1]; serum 3302,>
same,ABSORBANCE,[1]; serum 3482,>
same,ABSORBANCE,[1]; serum 3600,>
same,ABSORBANCE,[1]; serum 3627,>
same,ABSORBANCE,[1]; serum 3771,>
same,ABSORBANCE,[1]; serum 3891,>
same,ABSORBANCE,[1]; serum 3935,>
same,ABSORBANCE,[1]; serum 4477*,>
same,ABSORBANCE,[1]; serum 4489,>
same,ABSORBANCE,[1]; serum 5149,>
same,ABSORBANCE,[1]; serum 5270,>
same,ABSORBANCE,[1]; serum 5931,>
same,ABSORBANCE,[1]; serum 6165,>
same,ABSORBANCE,[1]; serum 6198,>
same,ABSORBANCE,[1]; serum 6627,>
same,ABSORBANCE,[1]; serum 6697,>
same,ABSORBANCE,[1]; serum 6891,>
same,ABSORBANCE,[1]; serum 6976,>
same,ABSORBANCE,[1]; serum 6998,>
same,ABSORBANCE,[1]; serum 7258,>
same,ABSORBANCE,[1]; serum 7443,>
"LLNLWGCKNRAICYTSVKWNKT (cysteine pairing not given here) [VAU 22 AA, reference compound]",Number of samples,[2]; CLASS A (a: OD<0.100),7
same,Number of samples,[2]; CLASS B (b: 0.100<OD<0.500),7
same,Number of samples,[2]; CLASS C (c: 0.500<OD<1.000),0
same,Number of samples,[2]; CLASS D (d: OD>1.000),0
same,ABSORBANCE (OD),[2]; serum 258 OUDI at 1/100,0.100
same,ABSORBANCE (OD),[2]; serum 625 at 1/50,0.165
same,ABSORBANCE (OD),[2]; serum 3600 at 1/100,0.058
same,ABSORBANCE (OD),[2]; serum 3613 at ¼00,0.396
same,ABSORBANCE (OD),[2]; serum 3653 at 1/10,0.310
same,ABSORBANCE (OD),[2]; serum 4280 at 1/50,0.021
same,ABSORBANCE (OD),[2]; serum 6111 at 1/100,0.180
same,ABSORBANCE (OD),[2]; serum DJOU at 1/100,0.042
same,ABSORBANCE (OD),[2]; serum DO15 at 1/100,0.075
same,ABSORBANCE (OD),[2]; serum MBASSI at 1/100,0.257
same,ABSORBANCE (OD),[2]; serum Maryland at ¼00,0.168
same,ABSORBANCE (OD),[2]; serum NGO at 1/50,0.040
same,ABSORBANCE (OD),[2]; serum NJEM at 1/100,0.024
same,ABSORBANCE (OD),[2]; serum WANG at 1/50,0.041
